Like-named read-outs stand apart in the source and are kept apart here.
What was measured:
[1] = after 20 mg and 75 mg CysA doses
OATP1B1/1B3 [2] = details: cited from earlier work
Renal clearance = assay type: in vivo, human
OATP1B1/1B3 [3] = details: ref 17 (pitavastatin), 19 (CP-I); cited from earlier work
OATP1B1/1B3 [4] = assay type: in vivo, human
[5] = +CysA 20 mg, 1 h before probe cocktail
[6] = otherwise (conditions other than rosuvastatin with 1-hour interval)

| AUCR: AUC0-24 Geometric mean ratio +CysA/Control (90% CI) (OATP1B1/1B3 [4]; [5]) | AUCR: AUC0-24 Geometric mean ratio +CysA/Control (90% CI) (OATP1B1/1B3 [4]; +CysA 75 mg (-1hr)) | AUCR: AUC0-24 Geometric mean ratio +CysA/Control (90% CI) (OATP1B1/1B3 [4]; +CysA 75 mg (-3hr)) | change of CLR by CysA (in words) (Renal clearance; [6]) | Compound | hepatic extraction (PBPK model analysis) (OATP1B1/1B3 [3]) | further results |
| --- | --- | --- | --- | --- | --- | --- |
| – | – | – | – | CC[C@@H]1NC(=O)[C@H]([C@H](O)[C@H](C)C/C=C/CO)N(C)C(=O)[C@H](C(C)C)N(C)C(=O)[C@H](CC(C)C)N(C)C(=O)[C@H](CC(C)C)N(C)C(=O)[C@@H](C)NC(=O)[C@H](C)NC(=O)[C@H](CC(C)C)N(C)C(=O)[C@H](C(C)C)NC(=O)[C@H](CC(C)C)N(C)C(=O)CN(C)C1=O [AM1, Cyclosporin AM1] | – | Plasma concentrations relative to CysA (times lower) [1]: 10 times; inhibition of OATP1B1/1B3 (in words) (OATP1B1/1B3 [2]): inhibitor |
| – | – | – | – | CC1=C(CCC(=O)O)c2cc3nc(cc4[nH]c(cc5[nH]c(cc1n2)c(C)c5CCC(=O)O)c(CCC(=O)O)c4C)C(CCC(=O)O)=C3C.Cl.Cl [CP-III, Coproporphyrin III dihydrochloride] | – | reduction of CLR by CysA (Renal clearance; CysA 75 mg): 24% |
| 1.64 | 3.46 | 2.38 | – | O=C(O)C[C@H](O)C[C@H](O)/C=C/c1c(C2CC2)nc2ccccc2c1-c1ccc(F)cc1 [pitavastatin] | 0.43 | – |
| 1.39 | 2.16 | 1.81 | no significant change | CC(C)c1nc(N(C)S(C)(=O)=O)nc(-c2ccc(F)cc2)c1/C=C/[C@@H](O)C[C@@H](O)CC(=O)O [rosuvastatin] | – | change of CLR by CysA (in words) (Renal clearance; CysA administered with a 1-hour interval): decreased |
| 1.43 | 1.77 | 1.85 | no significant change | CCCCC(=O)N(Cc1ccc(-c2ccccc2-c2nnn[nH]2)cc1)[C@H](C(=O)O)C(C)C [valsartan] | – | – |
| – | – | – | – | coproporphyrin I [CP-I] | 0.28 | – |

Source: publication PMC9325410 (Clinical Pharmacology and Therapeutics, 2022)
